Target: Prothrombin (Homo sapiens, UniProt P00734)
Assay: Compound was evaluated for the inhibitory activity against thrombin.

SMILES | Ki [nM]
CC1(C)[C@@H]2C[C@H]3OB([C@H](CCCCN)NC(=O)[C@@H]4CCCN4C(=O)[C@H]4CNC[C@@H]4c4cccc(C(F)(F)F)c4)O[C@@]3(C)[C@H]1C2 | 5.6
NCCCC[C@H](NC(=O)[C@@H]1CCCN1C(=O)CCc1cccc(C(F)(F)F)c1)B(O)O | 0.78
CC(C)(C)OC(=O)N1C[C@@H](C(=O)N2CCC[C@H]2C(=O)N[C@@H](CCCCN)B2O[C@@H]3C[C@@H]4C[C@@H](C4(C)C)[C@]3(C)O2)[C@H](c2cccc(C(F)(F)F)c2)C1 | 0.32
CC12OB(C(CCCCN)NC(=O)[C@@H]3CCCN3C(=O)[C@H]3CCCC[C@@H]3c3ccccc3)OC1C[C@@H]1C[C@H]2C1(C)C (stereo partly drawn) | 30
CC1(C)[C@@H]2C[C@H]3OB([C@H](CCCCN)NC(=O)[C@@H]4CCCN4C(=O)[C@@H]4CNC[C@H]4c4cccc(C(F)(F)F)c4)O[C@@]3(C)[C@H]1C2 | 0.5
CC(C)(C)OC(=O)N1C[C@H](C(=O)N2CCC[C@H]2C(=O)N[C@@H](CCCCN)B2O[C@@H]3C[C@@H]4C[C@@H](C4(C)C)[C@]3(C)O2)[C@@H](c2cccc(C(F)(F)F)c2)C1 | 3.1
NCCCC[C@H](NC(=O)[C@@H]1CCCN1C(=O)CCc1ccccc1)B(O)O | 0.8
NCCC[C@H](NC(=O)[C@@H]1CCCN1C(=O)[C@@H]1CCCC[C@H]1c1ccccc1)B(O)O | 0.46

From ChEMBL document CHEMBL1129708, “Design and synthesis of ring-constrained boropeptide thrombin inhibitors” (Bioorg Med Chem Lett, 1996)
